Laboratory results published in ChEMBL document CHEMBL5230157, “The natural anthraquinone dye purpurin exerts antibacterial activity by perturbing the FtsZ assembly” (Bioorg Med Chem, 2021).
Converted amounts (≈) assume the structure as drawn. The source made the active and inactive calls. The rule behind the calls is not given here.

Columns and labels:
[1] = target: T1, Cell division protein FtsZ (Bacillus subtilis) (UniProt A5Z1V5); assay: Inhibition of Bacillus subtilis 168 FtsZ assessed as effect on nucleoid segregation at 7 uM for 4 hrs by immunostaining based fluorescent microscopy
T1 sequence (whole entry): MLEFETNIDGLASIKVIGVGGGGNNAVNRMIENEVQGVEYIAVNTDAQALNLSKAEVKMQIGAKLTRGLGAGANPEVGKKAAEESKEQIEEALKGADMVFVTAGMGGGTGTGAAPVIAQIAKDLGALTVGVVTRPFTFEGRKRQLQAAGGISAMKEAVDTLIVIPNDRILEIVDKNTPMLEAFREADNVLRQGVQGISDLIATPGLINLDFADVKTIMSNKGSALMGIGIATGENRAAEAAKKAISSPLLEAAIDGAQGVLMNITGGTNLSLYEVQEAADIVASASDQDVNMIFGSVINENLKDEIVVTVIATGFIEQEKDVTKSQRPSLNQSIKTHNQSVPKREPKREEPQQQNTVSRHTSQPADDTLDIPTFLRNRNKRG

Escherichia coli [2] = assay: Antibacterial activity against Escherichia coli XL1 assessed as bacterial growth inhibition at 150 uM by spectrophotometric method; type: functional; settings: read-out: GI
[3] = target: T2, Cell division protein FtsZ (Escherichia coli K-12) (UniProt P0A9A6); assay: Binding affinity to Escherichia coli BL21 FtsZ assessed as hydrophobic probe ANS-FtsZ complex fluorescence quenching at 20 uM for 30 mins by fluorescence analysis
T2 sequence (whole entry): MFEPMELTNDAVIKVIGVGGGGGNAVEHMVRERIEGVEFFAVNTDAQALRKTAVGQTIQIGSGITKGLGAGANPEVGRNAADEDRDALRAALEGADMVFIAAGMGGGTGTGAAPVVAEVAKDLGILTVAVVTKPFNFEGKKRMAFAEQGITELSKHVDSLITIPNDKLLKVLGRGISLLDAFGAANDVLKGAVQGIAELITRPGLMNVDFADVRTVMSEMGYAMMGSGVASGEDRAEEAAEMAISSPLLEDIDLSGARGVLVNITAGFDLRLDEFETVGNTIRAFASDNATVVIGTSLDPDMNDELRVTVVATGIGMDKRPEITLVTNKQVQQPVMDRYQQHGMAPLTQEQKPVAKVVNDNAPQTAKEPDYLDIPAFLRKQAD

HeLa [4] = assay: Antiproliferative activity against human HeLa cells assessed as inhibition of cell proliferation at 100 uM incubated for 24 hrs by sulforhodamine B assay; type: functional; set-up: scale not given: the % may be the effect or the level left
[5] = target: T1, Cell division protein FtsZ (Bacillus subtilis); assay: Inhibition of Bacillus subtilis PL642 GFP-tagged FtsZ assessed as effect on nucleoid segregation at 7 uM for 4 hrs by immunostaining based fluorescent microscopy
Escherichia coli [6] = assay: Antibacterial activity against Escherichia coli XL1 assessed as fold increase in average cell length at 80 uM incubated for 4 hrs in by fluorescent microscopy; type: functional
[7] = target: T2, Cell division protein FtsZ (Escherichia coli K-12); assay: Binding affinity to Escherichia coli BL21 FtsZ assessed as hydrophobic probe ANS-FtsZ complex fluorescence quenching at 5 uM for 30 mins by fluorescence analysis
Bacillus subtilis [8] = assay: Antibacterial activity against Bacillus subtilis 168 assessed as increase in average cell length at 7 uM incubated for 4 hrs in 23% of bacterial cells by fluorescent microscopy; type: functional
HeLa [9] = assay: Antiproliferative activity against human HeLa cells assessed as inhibition of cell proliferation at 300 uM incubated for 24 hrs by sulforhodamine B assay; type: functional; set-up: scale not given: the % may be the effect or the level left
[10] = target: T2, Cell division protein FtsZ (Escherichia coli K-12); assay: Inhibition of Escherichia coli BL21 FtsZ assessed as inhibition of KCl-induced GTPase activity at 5 uM preincubated for 10 mins followed by KCl stimulation and measured after 10 mins by malachite green ammonium molybdate dye based spectroscopic analysis; settings: time 20.0 min
Bacillus subtilis [11] = assay: Antibacterial activity against Bacillus subtilis 168 assessed as increase in average cell length at 7 uM incubated for 4 hrs in 9% of bacterial cells by fluorescent microscopy; type: functional
Escherichia coli [12] = assay: Antibacterial activity against Escherichia coli XL1 assessed as bacterial growth inhibition at 80 uM by spectrophotometric method; type: functional; settings: read-out: GI
Escherichia coli [13] = assay: Antibacterial activity against Escherichia coli XL1 assessed as bacterial growth inhibition at 20 uM by spectrophotometric method; type: functional; settings: read-out: GI
Escherichia coli [14] = assay: Antibacterial activity against Escherichia coli XL1 assessed as bacterial growth inhibition at 10 uM by spectrophotometric method; type: functional; settings: read-out: GI
Escherichia coli [15] = assay: Antibacterial activity against Escherichia coli XL1 assessed as bacterial growth inhibition at 30 uM by spectrophotometric method; type: functional; settings: read-out: GI
[16] = target: T2, Cell division protein FtsZ (Escherichia coli K-12); assay: Binding affinity to Escherichia coli BL21 FtsZ assessed as hydrophobic probe ANS-FtsZ complex fluorescence quenching at 80 uM for 30 mins by fluorescence analysis
[17] = target: T2, Cell division protein FtsZ (Escherichia coli K-12); assay: Inhibition of Escherichia coli BL21 FtsZ assessed as inhibition of KCl-induced GTPase activity at 20 uM preincubated for 10 mins followed by KCl stimulation and measured after 10 mins by malachite green ammonium molybdate dye based spectroscopic analysis; settings: time 20.0 min
[18] = target: T2, Cell division protein FtsZ (Escherichia coli K-12); assay: Inhibition of KCl-induced Escherichia coli BL21 FtsZ polymerization assessed as decrease in FtsZ polymer average length at 80 uM incubate for 1 hrs by […] staining based fluorescence microscopy
Bacillus subtilis [19] = assay: Antibacterial activity against Bacillus subtilis 168 assessed as bacterial growth inhibition at 30 uM by spectrophotometric method; type: functional; settings: read-out: GI
Tubulin (Homo sapiens) = Tubulin (Homo sapiens) (UniProt P68371+Q9H4B7+P0DPH7+P68366+Q13509+Q71U36+P04350+Q3ZCM7+P07437+P68363+Q9BQE3+Q6PEY2+Q13885+Q9BVA1+Q9BUF5); assay: Inhibition of tubulin polymerization […] assessed as effect on MAP rich- tubulin polymer mass at 20 to 80 uM preincubated for 10 mins followed by GTP addition and measured after 1 hrs by Bradford assay; settings: dose 20-80 µM, time 70.0 min
Bacillus subtilis [20] = assay: Antibacterial activity against Bacillus subtilis 168 assessed as minimum inhibitory concentration by spectrophotometric method; type: functional
[21] = target: T2, Cell division protein FtsZ (Escherichia coli K-12); assay: Inhibition of KCl-induced Escherichia coli BL21 FtsZ polymerization at 80 uM incubate for 10 min followed by KCl stimulation by spectrofluorimeter based light-scattering assay
HeLa [22] = assay: Antiproliferative activity against human HeLa cells assessed as inhibition of cell proliferation at 20 uM incubated for 24 hrs by sulforhodamine B assay; type: functional; set-up: scale not given: the % may be the effect or the level left
[23] = target: T1, Cell division protein FtsZ (Bacillus subtilis); assay: Inhibition of Bacillus subtilis PL642 GFP-tagged FtsZ assessed as decrease FtsZ ring at mid bacterial cells at 7 uM for 4 hrs by immunostaining based fluorescent microscopy
[24] = target: T2, Cell division protein FtsZ (Escherichia coli K-12); assay: Inhibition of KCl-induced Escherichia coli BL21 FtsZ polymerization at 20 uM incubate for 10 min followed by KCl stimulation by spectrofluorimeter based light-scattering assay
Bacillus subtilis [25] = assay: Antibacterial activity against Bacillus subtilis 168 assessed as bacterial growth inhibition at 20 uM by spectrophotometric method; type: functional; settings: read-out: GI

## O=C1c2ccccc2C(=O)c2c(O)c(O)cc(O)c21 [PURPURIN]
[1]
  Activity: inactive
Escherichia coli [2]
  inhibition of growth at 150 µM: 47.8%
[3]
  Activity: 45%
HeLa [4]
  Activity: 45%
[5]
  Activity: inactive
Escherichia coli [6]
  fold change (FC): 4
[7]
  Activity: 25%
Bacillus subtilis [8]
  Activity: 50.1 um
HeLa [9]
  Activity: 89%
[10]
  inhibition: 11.5%
Bacillus subtilis [11]
  Activity: 7 um
Escherichia coli [12]
  inhibition of growth at 80 µM: 38%
Escherichia coli [13]
  inhibition of growth at 20 µM: 18.5%
Escherichia coli [14]
  inhibition of growth at 10 µM: 12.5%
Escherichia coli [15]
  inhibition of growth at 30 µM: 25.6%
[16]
  Activity: 81%
[17]
  inhibition: 15.9%
[18]
  inhibition: Active
Bacillus subtilis [19]
  inhibition of growth at 30 µM: 100%
Tubulin (Homo sapiens)
  inhibition: inactive
Bacillus subtilis [20]
  MIC: 30 µM (≈ 7.69 µg/mL)
[21]
  inhibition: 47%
HeLa [22]
  Activity: 14%
[23]
  Activity: Active
[24]
  inhibition: 20%
Bacillus subtilis [25]
  inhibition of growth at 20 µM: 86%
